Laboratory results: patent publication US9169268B2, “Use of 7-alkoxy fangchinoline compounds in preventing, alleviating and/or treating depression” (Peking University, priority 2012, dated 2015)

Legend:
[1] = test system: chronic unpredictable stress (CUS) model in rats; test: Sucrose solution preference in CUS model in rats; assay type: in vivo; details: 7 days
Experimental: (§1) The chronic unpredictable stress model is usually used as a depression model. The experimental method is as follows. Stimulation includes forced swimming (10° C., 6 min), tail clamping (1 cm from the tail tip, 1 min), water deprivation (24 h), fasting (24 h), isolated housing (24 h), tail suspension (1 h), immobility (2 h), high-speed horizontal oscillation (120 times/min, 1 h), foot shock for 45 minutes (mean 1 mA, time course 1 s, once/min). These stressors were randomly scheduled over a one-week period and repeated throughout the 23-day experiment. The non-stress control group was housed under normal conditions. Time: between 9:00 a.m. and 2:00 p.m. Since Day 15, the animals in each group were daily intragastrically administered with the subject medicament and double distilled water based on body weight (blank group and CUS model group) respectively, 60 minutes before the stress. […] Behavior and sleep electroencephalogram analyses were carried out on Day 22-23 of the stress. On Day 21, 60 minutes after the final administration, a sucrose solution intake test was carried out and sleep electroencephalogram was recorded simultaneously. On Day 22, EPM and forced swimming tests were carried out.

[2] = test system: chronic unpredictable stress (CUS) model in rats; test: Forced swimming test in chronic unpredictable stress (CUS) model in rats; assay type: in vivo; details: 7 days
Experimental: as §1

[3] = test system: chronic unpredictable stress (CUS) model in rats; test: Autonomous movement in CUS model in rats; assay type: in vivo; details: 7 days
Experimental: as §1

[4] = test system: chronic unpredictable stress (CUS) model in rats; test: Elevated plus-maze (EPM) anxiety test in CUS model in rats; assay type: in vivo
Experimental: as §1

GSK-3β = GSK-3β (Homo sapiens, UniProt P49841); test: GSK-3β activity assay (Z′-LYTE); assay type: biochemical; details: n = 3; read-out: Mean EC50 in the inhibition of GSK-3β activity
Chain of GSK-3β (P49841 whole entry): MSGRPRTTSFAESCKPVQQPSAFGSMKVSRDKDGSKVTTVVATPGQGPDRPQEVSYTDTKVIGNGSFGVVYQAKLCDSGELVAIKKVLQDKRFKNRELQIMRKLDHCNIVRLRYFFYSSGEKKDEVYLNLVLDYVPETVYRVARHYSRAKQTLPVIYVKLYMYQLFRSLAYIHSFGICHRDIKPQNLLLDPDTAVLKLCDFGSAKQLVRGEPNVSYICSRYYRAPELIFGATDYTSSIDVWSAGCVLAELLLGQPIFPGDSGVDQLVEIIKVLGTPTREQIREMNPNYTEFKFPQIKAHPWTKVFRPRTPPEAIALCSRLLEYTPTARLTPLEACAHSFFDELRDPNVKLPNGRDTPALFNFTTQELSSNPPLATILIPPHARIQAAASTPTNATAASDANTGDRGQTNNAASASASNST
Experimental: The GSK-3β phosphorylation level was determined by using a Z′-LYTE assay (Life Technologies). The assay was performed in a 384-well plate. The wells of the testing plate were divided into blank control wells (without the enzyme), enzyme control wells (without the testing substance), and testing wells (with the enzyme and the testing substance at various concentrations). The inhibition rate of the testing substance is expressed as: inhibition %=(E−S)/(E−B)×100, wherein E is the average emission ratio of enzyme control wells; B is the average emission ratio of blank control wells; S is the emission ratio of the testing sample wells. The median effective concentration of each compound (EC50 μM) was calculated by using the resultant inhibition rate of each sample at various concentrations.

[5] = Serum AST and ALT in mice after 14 days of intragastric administration; assay type: in vivo
Experimental: Blood was collected from epicanthal, stood at room temperature for about 2 hours, and centrifuged for 12 minutes at 3000 r/min after coagulation. The serum was removed and centrifuged again. Alanine transaminase (ALT) and aspartate transaminase (AST) levels were determined

[6] = mouse serum, 30 mg/kg/day intragastric, 14 days
[7] = mouse serum, 60 mg/kg/day intragastric, 14 days

Row | EC50 (GSK-3β) [nM] | Compound | Sucrose solution preference ([1]; 7.5 mg/kg intragastric daily) | Sucrose solution preference ([1]; 15 mg/kg intragastric daily) | Sucrose solution preference ([1]; 30 mg/kg intragastric daily) | Autonomous movement Distance ([3]; 7.5 mg/kg intragastric daily) | Autonomous movement Speed ([3]; 7.5 mg/kg intragastric daily) | Autonomous movement Distance ([3]; 15 mg/kg intragastric daily) | Autonomous movement Speed ([3]; 15 mg/kg intragastric daily) | Autonomous movement Distance ([3]; 30 mg/kg intragastric daily) | Autonomous movement Speed ([3]; 30 mg/kg intragastric daily) | Percentage of entries into open arms relative to total entries into arms ([4]; 7.5 mg/kg intragastric daily) | Percentage of residence time in open arms ([4]; 7.5 mg/kg intragastric daily) | Percentage of entries into open arms relative to total entries into arms ([4]; 15 mg/kg intragastric daily) | Percentage of residence time in open arms ([4]; 15 mg/kg intragastric daily) | Percentage of entries into open arms relative to total entries into arms ([4]; 30 mg/kg intragastric daily) | Percentage of residence time in open arms ([4]; 30 mg/kg intragastric daily) | ALT ([5]; mouse, in vivo, 60 mg/kg/day) [U/L] | AST ([5]; mouse, in vivo, 60 mg/kg/day) [U/L] | also measured
1 | – | 5-bromo-7-ethoxy fangchinoline [Compound 4] | 79.2 ± 3.4^##,$$ % | 81.5 ± 4.7^##,$$ % | 93.6 ± 3.2^##,$$ % | 13257.21 ± 756.36^##,$$ mm | 44.19 ± 2.64^##,$$ mm/second | 13615.71 ± 743.43^##,$$ mm | 45.39 ± 4.02^##,$$ mm/second | 14362.26 ± 771.52^##,$$ mm | 47.87 ± 5.36^##,$$ mm/second | 54.2 ± 2.6^##,$ % | 66.2 ± 3.4^##,$$ % | 55.3 ± 4.0^##,$ % | 69.5 ± 4.2^##,$$ % | 59.7 ± 5.3^##,$$ % | 68.6 ± 3.2^##,$$ % | – | – | Forced swimming Immobility time ([2]; 7.5 mg/kg intragastric daily): 134.3 ± 4.4^##,$$ seconds; Forced swimming Immobility time ([2]; 15 mg/kg intragastric daily): 96.1 ± 3.74^##,$$ seconds; Forced swimming Immobility time ([2]; 30 mg/kg intragastric daily): 60.5 ± 5.3^##,$$ seconds
2 | 3210 | COc1ccc2cc1Oc1ccc(cc1)CC1c3cc(c(OC)cc3CCN1C)Oc1c(OC)c(OC)c(Cl)c3c1C(C2)N(C)CC3 (centres unmarked) [Compound 1, 5-chloro-7-methoxy fangchinoline] | 69.6 ± 4.6 % | 78.8 ± 4.0^##,$$ % | 81.6 ± 3.7^##,$$ % | 7581.17 ± 845.04^##,$$ mm | 25.27 ± 2.38^##,$$ mm/second | 9518.08 ± 704.12^##,$$ mm | 31.73 ± 3.44^##,$$ mm/second | 10347.64 ± 923.01^##,$$ mm | 34.49 ± 3.75^##,$$ mm/second | 41.2 ± 2.3 % | 53.6 ± 4.6^##,$$ % | 46.7 ± 3.4 % | 60.8 ± 4.0^##,$$ % | 53.9 ± 3.5^##,$$ % | 60.6 ± 3.7^##,$$ % | 80.9 ± 21.4 | 117.7 ± 16.1 | AST/ALT ([5]; mouse, in vivo, 60 mg/kg/day): 1.45 ± 0.21
3 | 2010 | COc1cc(Br)c2cc1Oc1ccc(cc1)CC1c3cc(c(OC)cc3CCN1C)Oc1c(OC)c(OC)c(Br)c3c1C(C2)N(C)CC3 (centres unmarked) [Compound 2, 5,14-dibromo-7-methoxy fangchinoline] | 72.5 ± 3.0 % | 89.0 ± 4.6^##,$$ % | 88.5 ± 3.1^##,$$ % | 9031.41 ± 639.33^##,$$ mm | 30.10 ± 3.88^##,$$ mm/second | 10116.74 ± 746.48^##,$$ mm | 33.72 ± 4.02^##,$$ mm/second | 12062.32 ± 903.42^##,$$ mm | 40.21 ± 5.36^##,$$ mm/second | 45.1 ± 3.8 % | 56.5 ± 3.0^##,$$ % | 49.7 ± 4.0 % | 63.6 ± 4.1^##,$$ % | 56.2 ± 5.3^##,$$ % | 64.5 ± 3.6^##,$$ % | 87.2 ± 24.7 | 108.4 ± 17.4 | melting point: 187 to 189 °C; AST/ALT ([5]; mouse, in vivo, 60 mg/kg/day): 1.24 ± 0.26
4 | 1260 | CCOc1c(OC)c(Br)c2c3c1Oc1cc4c(cc1OC)CCN(C)C4Cc1ccc(cc1)Oc1cc(c(Br)cc1OC)CC3N(C)CC2 (centres unmarked) [Compound 5, 5,14-dibromo-7-ethoxy fangchinoline] | 84.1 ± 3.3 % | 86.0 ± 3.5^##,$$ % | 91.5 ± 4.2^##,$$ % | 13732.42 ± 732.45^##,$$ mm | 45.77 ± 2.64^##,$$ mm/second | 14003.63 ± 737.47^##,$$ mm | 46.68 ± 4.02^##,$$ mm/second | 14561.84 ± 807.52^##,$$ mm | 48.54 ± 5.36^##,$$ mm/second | – | – | – | – | – | – | 91.7 ± 15.5 | 101.5 ± 18.7 | melting point: 186 to 188 °C
5 | 1350 | COc1ccc2cc1Oc1ccc(cc1)CC1c3cc(c(OC)cc3CCN1C)Oc1c(OC(C)C)c(OC)cc3c1C(C2)N(C)CC3 (centres unmarked) [Compound 8, 7-isopropoxy fangchinoline] | 80.5 ± 3.6 % | 84.7 ± 3.2^##,$ % | 90.1 ± 3.8^##,$$ % | 9968.41 ± 965.52^##,$$ mm | 33.22 ± 2.64^##,$$ mm/second | 12194.23 ± 887.65^##,$$ mm | 40.64 ± 4.02^##,$$ mm/second | 13053.78 ± 1005.46^##,$$ mm | 43.51 ± 5.36^##,$$ mm/second | – | – | – | – | – | – | 80.1 ± 21.3 | 89.2 ± 16.7 | –

Row | Compound | EC50 (GSK-3β) [nM] | Sucrose solution preference ([1]; 7.5 mg/kg intragastric daily) | Sucrose solution preference ([1]; 15 mg/kg intragastric daily) | Sucrose solution preference ([1]; 30 mg/kg intragastric daily) | Autonomous movement Distance ([3]; 7.5 mg/kg intragastric daily) | Autonomous movement Speed ([3]; 7.5 mg/kg intragastric daily) | Autonomous movement Distance ([3]; 15 mg/kg intragastric daily) | Autonomous movement Speed ([3]; 15 mg/kg intragastric daily) | Autonomous movement Distance ([3]; 30 mg/kg intragastric daily) | Autonomous movement Speed ([3]; 30 mg/kg intragastric daily) | Percentage of entries into open arms relative to total entries into arms ([4]; 7.5 mg/kg intragastric daily) | Percentage of residence time in open arms ([4]; 7.5 mg/kg intragastric daily) | Percentage of entries into open arms relative to total entries into arms ([4]; 15 mg/kg intragastric daily) | Percentage of residence time in open arms ([4]; 15 mg/kg intragastric daily) | Percentage of entries into open arms relative to total entries into arms ([4]; 30 mg/kg intragastric daily) | Percentage of residence time in open arms ([4]; 30 mg/kg intragastric daily) | ALT ([5]; mouse, in vivo, 60 mg/kg/day) [U/L] | AST ([5]; mouse, in vivo, 60 mg/kg/day) [U/L] | also measured
6 | COc1cc2c3cc1Oc1c(OC)c(OC)cc4c1[C@@H](Cc1ccc(O)c(c1)Oc1ccc(cc1)C[C@@H]3N(C)CC2)N(C)CC4 [berbamine, reference compound] | > 10000 | – | – | 55.05 ± 3.06% | – | – | – | – | 1387.56 ± 584.24 mm | 4.63 ± 1.49 mm/second | – | – | – | – | 38.3 ± 1.9% | 41.0 ± 3.0% | – | – | Sucrose solution preference ([1]; 60 mg/kg intragastric daily): 49.56 ± 4.27%; Autonomous movement Distance ([3]; 60 mg/kg intragastric daily): 1053.45 ± 476.33 mm; Autonomous movement Speed ([3]; 60 mg/kg intragastric daily): 3.51 ± 1.65 mm/second; Percentage of entries into open arms relative to total entries into arms ([4]; 60 mg/kg intragastric daily): 37.5 ± 1.6%; Percentage of residence time in open arms ([4]; 60 mg/kg intragastric daily): 39.6 ± 4.2%
7 | COc1ccc2cc1Oc1ccc(cc1)C[C@H]1c3cc(c(OC)cc3CCN1C)Oc1c(OC)c(OC)cc3c1[C@H](C2)N(C)CC3 [tetrandrine, reference compound] | 9020 | 55.4 ± 3.2% | 52.9 ± 3.7% | 67.7 ± 3.3 % | 1369.54 ± 532.47 mm | 4.57 ± 1.85 mm/second | 1124.37 ± 504.85 mm | 3.75 ± 1.98 mm/second | 1027.36 ± 456.76 mm | 3.42 ± 1.33 mm/second | 38.0 ± 2.3% | 42.1 ± 3.7% | 39.5 ± 3.0% | 40.6 ± 4.8% | 43.8 ± 3.2% | 41.3 ± 3.0% | – | – | Sucrose solution preference ([1]; 60 mg/kg intragastric daily): 70.2 ± 4.6 %; AST activity and the AST/ALT ratio ([5]; mice, 30 mg/kg intragastric, 14 consecutive days): evidently enhanced; change in AST activity, ALT activity and the ratio thereof (AST/ALT) in blood serum ([5]; mice, 60 mg/kg intragastric, 14 consecutive days): all evidently enhanced; ALT [5, 6]: 83.8 ± 15.9 U/L; AST [5, 6]: 204.8 ± 21.8 U/L; AST/ALT [5, 6]: 2.44 ± 0.21; ALT [5, 7]: 113.2 ± 20.6 U/L; AST [5, 7]: 205.6 ± 22.8 U/L; AST/ALT [5, 7]: 1.82 ± 0.26; Autonomous movement Distance ([3]; 60 mg/kg intragastric daily): 1285.41 ± 401.24 mm; Autonomous movement Speed ([3]; 60 mg/kg intragastric daily): 4.28 ± 1.56 mm/second; Percentage of entries into open arms relative to total entries into arms ([4]; 60 mg/kg intragastric daily): 46.2 ± 2.9 %; Percentage of residence time in open arms ([4]; 60 mg/kg intragastric daily): 42.8 ± 3.5%
